Assay results taken from patent US20110086809A1, “Enteral Administration Of Arginine-Glutamine Dipeptide To Support Retinal, Intestinal, Or Nervous System Development” (priority 2009, published 2011).

What was measured:
[1] = system: caspase-3; assay: Brain caspase-3 colorimetric activity assay in hyperoxia-exposed neonatal mice; format: in vivo, mouse; details: compared to hyperoxic mice; FIG. 4
Description: (§1) In the neonatal mouse model of oxygen-induced retinopathy, 7-day old mice are placed with their nursing dams in a 75% oxygen atmosphere for 5 days. Mouse pups receive twice a day gavage feedings of arginine-glutamine dipeptide or control solution (20 μL) starting on postnatal day 12 (P12) and continuing through postnatal day 17 (P17). In one experiment, different dosages of arginine-glutamine dipeptide (1.0, 2.5 and 5 g/kg·day as a hydrochloride salt, Bachem, Babendorf, Switzerland) are tested. In a second experiment, arginine-glutamine dipeptide (5 g/kg day) is given and a normoxia group is used as a control.
(§2) After the fifth day following return to normoxia (P17), the animals are euthanized by injection of a lethal dose of a combination of ketamine (70 mg/kg body weight) and xylazine (15 mg/kg body weight) followed by cervical dislocation.
Caspase-3 activity is determined using a Caspase-3 Colorimetric Activity Assay Kit (Chemicon International, Inc., Temecula, Calif.). The brain is homogenized with a Polytron homogenizer, and the homogenates are stored in aliquots at −80° C.

[2] = system: intestinal injury induced by hyperoxia in a mouse model; assay: Histological intestinal damage score in hyperoxia-exposed neonatal mice; format: in vivo; details: ileum histology, score 0 to 4+ (0=no damage, 4=severe damage); hyperoxic conditions plus dipeptide by gavage; hyperoxia alone 3.5; FIG. 2
Description: as §1, §2
Intestinal injury is evaluated using histological techniques. A portion of intestine from the ileum is fixed in 10% (w·v) neutral buffered formalin for 24 hours for light microscopy. The intestine is paraffin embedded, cut into 4 μm sections, mounted on glass slides, and stained with hematoxylin and eosin according to standard procedures. Histological analyses are performed using a damage scoring system from 0 to 4+ (0=no damage, 4=severe damage with mucosal sloughing) to determine the severity of the intestinal injury.

[3] = system: Bcl-2; assay: Brain Bcl-2 levels by immunoblotting in hyperoxia-exposed neonatal mice; format: in vivo; details: mouse brain, hyperoxic conditions, treated with dipeptide; FIG. 3
Description: as §1, §2
Bcl-2 levels are determined using standard immunoblotting techniques. The brain is homogenized with a Polytron homogenizer, and the homogenates are stored in aliquots at −80° C. Gel electrophoresis is performed using the BioRad electrophoresis system (Carlsbad, Calif.). […] Protein bands are quantified by densitometry.

[4] = system: neonatal mouse model of oxygen-induced retinopathy; assay: Neonatal mouse model of oxygen-induced retinopathy, pre-retinal nuclei count; format: in vivo; details: FIG. 1
Description: In the neonatal mouse model of oxygen-induced retinopathy, 7-day old mice are placed with their nursing dams in a 75% oxygen atmosphere for 5 days. Mouse pups receive twice a day gavage feedings of arginine-glutamine dipeptide or control solution (50 μL) starting on postnatal day 12 (P12) and continuing through postnatal day 17 (P17). Gavage feeds include a control (0.9% sodium chloride) and the test compounds and different doses of arginine-glutamine dipeptide (1.0, 2.5 and 5 g/kg·day). The daily dosage of the dipeptide is divided evenly between the two daily gavage feedings.
After the fifth day following return to normoxia (P17), the animals are euthanized by injection of a lethal dose of a combination of ketamine (70 mg/kg body weight) and xylazine (15 mg/kg body weight) followed by cervical dislocation. The eyes are removed and fixed in 4% paraformaldehyde, embedded in paraffin, and sectioned. Pre-retinal nuclei are counted by masked observers. Efficacy of treatment is calculated as the percent average nuclei per section in the eyes of arginine-glutamine dipeptide treated animals versus control animals.
Some of the eyes are taken for qualitative retinal flatmount analysis. For these mice, at the time of euthanasia, the mice are perfused with fluorescein isothiocyanate-labeled dextran to visualize the vasculature. […]

Substance: arginine-glutamine dipeptide
- reduction in brain caspase-3 activity [1]: 32%
- average intestinal damage score [2]: 1.67
- increased Bcl-2 expression in brain [3]: 33%
- dose/response of reduction of nuclei per section ([4]; dosages between 1 g/kg·day and 5 g/kg·day, highest effectiveness at 5 g/kg·day): highest level of effectiveness was shown at 5 g/kg·day
- average number of nuclei per section in the eyes ([4]; neonatal mice exposed to hyperoxia (75% oxygen, 5 days), gavage twice a day P12-P17, 1, 2.5 and 5 g/kg·day, versus control (0.9% sodium chloride)): decreased at all levels of administration
